Counter-ions that a name gives are not always drawn.
The compounds below were run against human complement factor B (CVF-Bb complex) (Homo sapiens (Human), UniProt P00751) (assay: Human Complement Factor B ELISA Assay). Settings: CVF-Bb complex 3 nM, 1 hour preincubation with compound at room temperature, human C3 substrate 1 μM, C3a quantified by ELISA; read-out: Factor B IC50.
Format: biochemical
Description: Human Complement Factor B ELISA Assay
CVF-Bb complex prepared from purified cobra venom factor (1 μM), recombinant human complement factor B (expressed in drosophila cells and purified using standard methods) and human complement factor D (expressed in E. Coli, refolded and purified using standard methods). CVF-Bb complex at 3 nM concentration was incubated with test compound at various concentrations for 1 hour at room temperature in PBS pH 7.4 containing 10 mM MgCl2 and 0.05% (w/v) CHAPS. Human complement C3 substrate purified from plasma was added to a final concentration of 1 μM. After 1 hour incubation at room temperature, the enzyme reaction was stopped by addition of a cocktail of concentrated pan-protease inhibitors. The product of the reaction, C3a, was quantified by means of an enzyme-linked-immunosorbent assay. IC50 values were calculated from percentage of inhibition of CVF-Bb activity as a function of test compound concentration.

First: COc1cc2c(N)nc(N3CCN(C(=O)/C=C/C4CC4)CC3)nc2c(F)c1OC [Example 1, (E)-1-[4-(4-Amino-8-fluoro-6,7-dimethoxy-quinazolin-2-yl)-piperazin-1-yl]-3-cyclopropyl-propenone hydrochloride]
Second: COc1cc2c(N)nc(N3CCN(C(=O)/C=C/C4CC4)CC3)nc2c(Cl)c1OC [Example 13, (E)-1-(4-(4-Amino-8-chloro-6,7-dimethoxyquinazolin-2-yl)piperazin-1-yl)-3-cyclopropylprop-2-en-1-one]
The IC50 of the first is 2.1-fold lower: 500 nM for the first, 1050 nM for the second. The first is the more potent here.

Going from `COc1cc2c(N)nc(N3CCN(C(=O)/C=C/c4ccc(C#N)cc4)CC3)nc2c(F)c1OC` [Example 2, 4-{(E)-3-[4-(4-Amino-8-fluoro-6,7-dimethoxy-quinazolin-2-yl)-piperazin-1-yl]-3-oxo-propenyl}-benzonitrile] to `COCCOc1c(OC)cc2c(N)nc(N3CCN(C(=O)/C=C/c4ccc(C#N)cc4)CC3)nc2c1F` [Example 11, 4-((E)-3-{4-[4-Amino-8-fluoro-6-methoxy-7-(2-methoxy-ethoxy)-quinazolin-2-yl]-piperazin-1-yl}-3-oxo-propenyl)-benzonitrile], the IC50 rises from 16 nM to 230 nM (14-fold). The first is the more potent here.

First: COC[C@H]1CN(C(=O)/C=C/C2CC2)CCN1c1nc(N)c2cc(OC)c(OC)c(F)c2n1 [Example 3]
Second: COCCC1CN(C(=O)/C=C/C2CC2)CCN1c1nc(N)c2cc(OC)c(OC)c(F)c2n1 (stereo not shown) [Example 4, (E)-1-[4-(4-Amino-8-fluoro-6,7-dimethoxy-quinazolin-2-yl)-3-(2-methoxy-ethyl)-piperazin-1-yl]-3-cyclopropyl-propenone]
The IC50 of the first is 8-fold lower: 2060 nM for the first, 16500 nM for the second. The first is the more potent here.

Going from `COc1cc2c(N)nc(N3CCN(C(=O)/C=C/C4CC4)CC3)nc2c(C#N)c1OC` [Example 5, 4-Amino-2-[4-((E)-3-cyclopropyl-acryloyl)-piperazin-1-yl]-6,7-dimethoxy-quinazoline-8-carbonitrile] to `COc1cc2c(N)nc(N3CCN(C(=O)/C=C/C4CC4)CC3)nc2c(Br)c1OC` [Example 15, (E)-1-(4-(4-Amino-8-bromo-6,7-dimethoxyquinazolin-2-yl)piperazin-1-yl)-3-cyclopropylprop-2-en-1-one], the IC50 rises from 440 nM to 1280 nM (2.9-fold).

Compared with `COc1cc2c(N)nc(N3CCN(C(=O)/C=C/C4CCC4)C[C@@H]3C)nc2c(F)c1OC` [Example 6, (E)-1-[(S)-4-(4-Amino-8-fluoro-6,7-dimethoxy-quinazolin-2-yl)-3-methyl-piperazin-1-yl]-3-cyclobutyl-propenone], `COc1cc2c(N)nc(N3CCN(C(=O)/C=C/c4ccc(C#N)cc4)C[C@@H]3C)nc2c(F)c1OC` [Example 7, 4-{(E)-3-[(S)-4-(4-Amino-8-fluoro-6,7-dimethoxy-quinazolin-2-yl)-3-methyl-piperazin-1-yl]-3-oxo-propenyl}-benzonitrile] is 9.5-fold lower in IC50: 190 nM for the first, 20 nM for the second.

First: CC[C@H]1CN(C(=O)/C=C/c2ccc(C#N)cc2)CCN1c1nc(N)c2cc(OC)c(OC)c(F)c2n1 [Example 8, 4-{(E)-3-[(S)-4-(4-Amino-8-fluoro-6,7-dimethoxy-quinazolin-2-yl)-3-ethyl-piperazin-1-yl]-3-oxo-propenyl}-benzonitrile]
Second: CCC[C@H]1CN(C(=O)/C=C/c2ccc(C#N)cc2)CCN1c1nc(N)c2cc(OC)c(OC)c(F)c2n1 [Example 9, 4-{(E)-3-[(S)-4-(4-Amino-8-fluoro-6,7-dimethoxy-quinazolin-2-yl)-3-propyl-piperazin-1-yl]-3-oxo-propenyl}-benzonitrile]
The IC50 of the first is 1.8-fold lower: 11 nM for the first, 20 nM for the second. The first is the more potent here.

Compared with `COc1cc2c(N)nc(N3CCN(C(=O)/C=C/c4ccc(C#N)cc4)C[C@@H]3c3ccccc3)nc2c(F)c1OC` [Example 10, 4-{(E)-3-[(S)-4-(4-Amino-8-fluoro-6,7-dimethoxy-quinazolin-2-yl)-3-phenyl-piperazin-1-yl]-3-oxo-propenyl}-benzonitrile], `COc1cc2c(N)nc(N3CCN(C(=O)c4cc5cc(C#N)ccc5[nH]4)C[C@@H]3C)nc2c(F)c1OC` [Example 23, 2-[(S)-4-(4-Amino-8-fluoro-6,7-dimethoxy-quinazolin-2-yl)-3-methyl-piperazine-1-carbonyl]-1H-indole-5-carbonitrile] is 2.5-fold higher in IC50: 6 nM for the first, 15 nM for the second. The first is the more potent here.

Going from `COc1cc2nc(N3CCN(C(=O)/C=C/C4CC4)CC3)nc(N)c2c(F)c1OC` [Example 12, (E)-1-[4-(4-Amino-5-fluoro-6,7-dimethoxy-quinazolin-2-yl)-piperazin-1-yl]-3-cyclopropyl-propenone] to `COc1cc2nc(N3CCN(C(=O)/C=C/C4CC4)CC3)nc(N)c2c(Cl)c1OC` [Example 14, (E)-1-(4-(4-Amino-5-chloro-6,7-dimethoxyquinazolin-2-yl)piperazin-1-yl)-3-cyclopropylprop-2-en-1-one], the IC50 rises from 140 nM to 3290 nM (24-fold). The first is the more potent here.

Going from `COc1cc2c(N)nc(N3CCN(C(=O)/C=C/c4ccc(F)cc4)CC3)nc2c(Cl)c1OC` [Example 16, (E)-1-(4-(4-Amino-8-chloro-6,7-dimethoxyquinazolin-2-yl)piperazin-1-yl)-3-(4-fluorophenyl)prop-2-en-1-one] to `COc1cc2c(N)nc(N3CCN(C(=O)c4cc5cc(F)ccc5[nH]4)CC3)nc2c(F)c1OC` [Example 21, [4-(4-Amino-8-fluoro-6,7-dimethoxy-quinazolin-2-yl)-piperazin-1-yl]-(5-fluoro-1H-indol-2-yl)-methanone], the IC50 falls from 1440 nM to 70 nM (21-fold). The second is the more potent here.

Compared with `COc1cc2c(N)nc(N3CCN(C(=O)c4cc5ccccc5[nH]4)CC3)nc2c(F)c1OC` [Example 17, [4-(4-Amino-8-fluoro-6,7-dimethoxy-quinazolin-2-yl)-piperazin-1-yl]-(1H-indol-2-yl)-methanone], `COc1cc2c(N)nc(N3CCN(C(=O)c4cc5cc(O)ccc5[nH]4)CC3)nc2c(F)c1OC` [Example 19, [4-(4-Amino-8-fluoro-6,7-dimethoxy-quinazolin-2-yl)-piperazin-1-yl]-(5-hydroxy-1H-indol-2-yl)-methanone] is 4.2-fold lower in IC50: 340 nM for the first, 80 nM for the second. The second is the more potent here.

Going from `COc1cc2c(N)nc(N3CCN(C(=O)c4cc5cc(C#N)ccc5[nH]4)CC3)nc2c(F)c1OC` [Example 18, 2-[4-(4-Amino-8-fluoro-6,7-dimethoxy-quinazolin-2-yl)-piperazine-1-carbonyl]-1H-indole-5-carbonitrile] to `CC[C@H]1CN(C(=O)c2cc3cc(C#N)ccc3[nH]2)CCN1c1nc(N)c2cc(OC)c(OC)c(F)c2n1` [Example 25, 2-[(S)-4-(4-Amino-8-fluoro-6,7-dimethoxy-quinazolin-2-yl)-3-ethyl-piperazine-1-carbonyl]-1H-indole-5-carbonitrile], the IC50 falls from 20 nM to 6 nM (3.3-fold). The second is the more potent here.

First: COc1cc2c(N)nc(N3CCN(C(=O)c4cc5c(OC)cccc5[nH]4)CC3)nc2c(F)c1OC [Example 20, [4-(4-Amino-8-fluoro-6,7-dimethoxy-quinazolin-2-yl)-piperazin-1-yl]-(4-methoxy-1H-indol-2-yl)-methanone]
Second: COc1cc2c(N)nc(N3CCN(C(=O)c4cc5cc(F)cc(F)c5[nH]4)CC3)nc2c(F)c1OC [Example 22, [4-(4-Amino-8-fluoro-6,7-dimethoxy-quinazolin-2-yl)-piperazin-1-yl]-(5,7-difluoro-1H-indol-2-yl)-methanone]
The IC50 of the first is 570-fold higher: 9630 nM for the first, 17 nM for the second. The second is the more potent here.

`COc1cc2c(N)nc(N3CCN(C(=O)c4cc5cc(F)ccc5[nH]4)C[C@@H]3C)nc2c(F)c1OC` [Example 24, [(S)-4-(4-Amino-8-fluoro-6,7-dimethoxy-quinazolin-2-yl)-3-methyl-piperazin-1-yl]-(5-fluoro-1H-indol-2-yl)-methanone] gave an IC50 of 90 nM.

From patent US9452990B2, “Complement pathway modulators and uses thereof” (NOVARTIS AG, priority 2012, dated 2016)
